Key:
Salmonella Enteritidis = assay: Coloration of Salmonella Enteritidis colonies on detection medium; format: cell-based; set-up: key: 0=no coloration; 0.5=trace of coloration; 1=weak coloration; 2=strong coloration
Procedure: (§1) Preparation of the detection medium: A volume of 250 ml of detection medium is prepared from a powdered medium having the following composition:
(§2) Melting is carried out at 100° C., and the medium is autoclaved at 121° C. for 15 minutes. The additives are then added to the medium: Magenta C8 (500 mg/l; B-7102, BIOSYNTH, Staad, Switzerland); X-glucoside (75 mg/l; B-7250, BIOSYNTH, Staad, Switzerland); cefsulodine (10 mg/l; C 4786, Sigma, St Quentin Fallavier, France) and various concentrations of the inhibitor O,O-diethyl p-nitrophenyl phosphate (Paraoxon® ethyl; CAS No. 311-45-5; 36186, Riedel-de Haën, St Quentin Fallavier, France; 0; 1; 5 or 10 mg/l).
(§3) The various detection media thus obtained are then poured into Petri dishes.
(§4) Seeding of Salmonella bacteria: 10 μl of stools are deposited onto a Petri dish, this stool suspension is mixed or not mixed with 10 μl of a suspension of Salmonella (0.5 McF) and isolated as 3 dials on a Petri dish. Various […] and various Salmonella strains originating from the applicant's collection are used according to this protocol. The Petri dishes are incubated at 37° C. for 24 hours. The appearance of a coloration at the point of deposit of the stool (“deposit” column) and at the Salmonella colony (“colony” column) is read according to a semi-quantitative scale: • 0=no coloration • 0.5=trace of coloration • 1=weak coloration • 2=strong coloration The results obtained are given in Table 1.
as §2, with “O,O-dimethyl” for “O,O-diethyl”, “methyl;” for “ethyl;”, “950-35-6;” for “311-45-5; 36186,”, “5, 10, 25” for “0; 1; 5 or 10”
(§5) Seeding of Salmonella bacteria: The Petri dishes are inoculated, incubated and read as in Example 1.
(§6) Preparation of the detection medium: 250 ml of the medium of Example 1, in which the O,O-diethyl p-nitrophenyl phosphate is replaced with various concentrations of O,O-di-(2-chloroethyl)-O-(3-chloro-4-methylcoumarin-7-yl)phosphate (Haloxon®; CAS No. 321-55-1; R276995, Sigma, St Quentin Fallavier, France; 0; 1; 10; 100 or 1000 mg/l), are prepared according to the method of Example 1.
(§7) The various selection media thus obtained are then poured into Petri dishes.

[1] = system: free esterases in a stool sample; assay: Coloration at the point of deposit of the stool on Salmonella detection medium (Magenta C8); format: biochemical; set-up: key to Deposit coloration: 0=no coloration; 0.5=trace of coloration; 1=weak coloration; 2=strong coloration; settings: for Aspecific enzymatic reactions due to the presence of free enzymes: stools, Salmonella detection medium, summary in words
Procedure: as §1, §2, §3, §4
as §2, with “O,O-dimethyl” for “O,O-diethyl”, “methyl;” for “ethyl;”, “950-35-6;” for “311-45-5; 36186,”, “5, 10, 25” for “0; 1; 5 or 10”
as §5, §6, §7

Candida albicans = assay: Coloration of Candida albicans colonies on detection medium; format: cell-based; set-up: key: 0=absence of coloration; 0.5=trace coloration; 1=weak coloration; 2=strong coloration; settings: stool B
Procedure: as §1
(§8) Melting is carried out at 100° C., and the medium is autoclaved at 121° C. for 15 minutes. The additives are then added to the medium: Magenta C8 (500 mg/l; B-7102, BIOSYNTH, Staad, Switzerland); X-glucoside (75 mg/l; B-7250, BIOSYNTH, Staad, Switzerland); cefsulodine (10 mg/l; C 4786, Sigma, St Quentin Fallavier, France), and also the esterase inhibitor: • ? O,O-diethyl p-nitrophenyl phosphate: 5 mg/l • ? O,O-dimethyl p-nitrophenyl phosphate: 25 mg/l or • ? O,O-di-(2-chloroethyl)-O-(3-chloro-4-methylcoumarin-7-yl)phosphate: 75 mg/l
as §7
(§9) Seeding of yeast of the Candida genus: 10 μl of stools are deposited onto a Petri dish, and this stool suspension is mixed or not mixed with 10 μl of a suspension of Candida and isolated as 3 dials on a Petri dish. Various stools and various strains of Candida genus originating from the applicant's collection are used according to this protocol. The Petri dishes are incubated at 37° C. for 24 hours.
(§10) The appearance of a coloration at the point of deposit of the stool and in the Candida colonies is read according to a semi-quantitative scale: • 0=absence of coloration • 0.5=trace coloration • 1=weak coloration • 2=strong coloration.

[2] = Colonies column read for stool without added strain, Salmonella detection medium; set-up: key: 0=no coloration; 0.5=trace of coloration; 1=weak coloration; 2=strong coloration; settings: no strain
Procedure: as §1, §2, §3, §4
as §2, with “O,O-dimethyl” for “O,O-diethyl”, “methyl;” for “ethyl;”, “950-35-6;” for “311-45-5; 36186,”, “5, 10, 25” for “0; 1; 5 or 10”
as §5, §6, §7

[3] = Colonies column read for stool without added strain, Candida detection medium; set-up: key: 0=absence of coloration; 0.5=trace coloration; 1=weak coloration; 2=strong coloration; settings: Table 4, no strain
Procedure: as §1, §8, §7, §9, §10

Candida krusei = assay: Coloration of Candida krusei colonies on detection medium; format: cell-based; set-up: key: 0=absence of coloration; 0.5=trace coloration; 1=weak coloration; 2=strong coloration
Procedure: as §1, §8, §7, §9, §10

Salmonella Typhi = assay: Coloration of Salmonella Typhi colonies on detection medium; format: cell-based; set-up: key: 0=no coloration; 0.5=trace of coloration; 1=weak coloration; 2=strong coloration
Procedure: as §1, §2, §3, §4
as §2, with “O,O-dimethyl” for “O,O-diethyl”, “methyl;” for “ethyl;”, “950-35-6;” for “311-45-5; 36186,”, “5, 10, 25” for “0; 1; 5 or 10”
as §5, §6, §7

Cc1c(Cl)c(=O)oc2cc(OP(=O)(OCCCl)OCCCl)ccc12 [O,O-di-(2-chloroethyl)-O-(3-chloro-4-methylcoumarin-7-yl) phosphate]
1: Deposit coloration ([1]; Table 3, 1 mg/l, stool A, Salmonella Enteritidis) | Deposit coloration ([1]; Table 3, 1 mg/l, stool A, Salmonella Paratyphi A) | Deposit coloration ([1]; Table 3, 1 mg/l, stool A, Salmonella Typhi) | Deposit coloration ([1]; Table 3, 1 mg/l, stool A, no strain) | Deposit coloration ([1]; Table 3, 1 mg/l, stool B, no strain) | Deposit coloration ([1]; Table 3, 10 mg/l, stool A, Salmonella Enteritidis) | Deposit coloration ([1]; Table 3, 10 mg/l, stool A, Salmonella Paratyphi A) | Deposit coloration ([1]; Table 3, 10 mg/l, stool A, Salmonella Typhi) | Deposit coloration ([1]; Table 3, 10 mg/l, stool A, no strain) | Colonies coloration (Salmonella Typhi; Table 3, 1 mg/l, stool A) | Colonies coloration (Salmonella Typhi; Table 3, 1 mg/l, stool B) | Colonies coloration (Salmonella Typhi; Table 3, 10 mg/l, stool A) | Colonies coloration (Salmonella Typhi; Table 3, 10 mg/l, stool B) | Colonies coloration (Salmonella Typhi; Table 3, 100 mg/l, stool A) | Colonies coloration (Salmonella Typhi; Table 3, 100 mg/l, stool B) | Colonies coloration (Salmonella Typhi; Table 3, 1000 mg/l, stool A) | Colonies coloration (Salmonella Typhi; Table 3, 1000 mg/l, stool B)
2: Colonies coloration (Salmonella Enteritidis; Table 3, 1 mg/l, stool A) | Colonies coloration (Salmonella Enteritidis; Table 3, 1 mg/l, stool B) | Colonies coloration (Salmonella Enteritidis; Table 3, 10 mg/l, stool A) | Colonies coloration (Salmonella Enteritidis; Table 3, 10 mg/l, stool B) | Colonies coloration (Salmonella Enteritidis; Table 3, 100 mg/l, stool A) | Colonies coloration (Salmonella Enteritidis; Table 3, 100 mg/l, stool B) | Colonies coloration (Salmonella Enteritidis; Table 3, 1000 mg/l, stool A) | Colonies coloration (Salmonella Enteritidis; Table 3, 1000 mg/l, stool B)
0: Deposit coloration ([1]; Table 3, 1 mg/l, stool B, Salmonella Enteritidis) | Deposit coloration ([1]; Table 3, 1 mg/l, stool B, Salmonella Paratyphi A) | Deposit coloration ([1]; Table 3, 1 mg/l, stool B, Salmonella Typhi) | Deposit coloration ([1]; Table 3, 10 mg/l, stool B, Salmonella Enteritidis) | Deposit coloration ([1]; Table 3, 10 mg/l, stool B, Salmonella Paratyphi A) | Deposit coloration ([1]; Table 3, 10 mg/l, stool B, Salmonella Typhi) | Deposit coloration ([1]; Table 3, 100 mg/l, stool B, Salmonella Enteritidis) | Deposit coloration ([1]; Table 3, 100 mg/l, stool B, Salmonella Paratyphi A) | Deposit coloration ([1]; Table 3, 100 mg/l, stool B, Salmonella Typhi) | Deposit coloration ([1]; Table 3, 100 mg/l, stool B, no strain) | Deposit coloration ([1]; Table 3, 1000 mg/l, stool A, Salmonella Enteritidis) | Deposit coloration ([1]; Table 3, 1000 mg/l, stool A, Salmonella Paratyphi A) | Deposit coloration ([1]; Table 3, 1000 mg/l, stool A, Salmonella Typhi) | Deposit coloration ([1]; Table 3, 1000 mg/l, stool A, no strain) | Deposit coloration ([1]; Table 3, 1000 mg/l, stool B, Salmonella Enteritidis) | Deposit coloration ([1]; Table 3, 1000 mg/l, stool B, Salmonella Paratyphi A) | Deposit coloration ([1]; Table 3, 1000 mg/l, stool B, Salmonella Typhi) | Deposit coloration ([1]; Table 3, 1000 mg/l, stool B, no strain) | Colonies coloration ([2]; Table 3, 1 mg/l, stool A) | Colonies coloration ([2]; Table 3, 1 mg/l, stool B) | Colonies coloration ([2]; Table 3, 10 mg/l, stool A) | Colonies coloration ([2]; Table 3, 10 mg/l, stool B) | Colonies coloration ([2]; Table 3, 100 mg/l, stool A) | Colonies coloration ([2]; Table 3, 100 mg/l, stool B) | Colonies coloration ([2]; Table 3, 1000 mg/l, stool A) | Colonies coloration ([2]; Table 3, 1000 mg/l, stool B) | Colonies coloration ([3]; 75 mg/l, stool A) | Colonies coloration ([3]; 75 mg/l, stool B)
greatly inhibited: Aspecific enzymatic reactions due to the presence of free enzymes [1]
0.5: Deposit coloration ([1]; Table 3, 10 mg/l, stool B, no strain) | Deposit coloration ([1]; Table 3, 100 mg/l, stool A, Salmonella Enteritidis) | Deposit coloration ([1]; Table 3, 100 mg/l, stool A, Salmonella Paratyphi A) | Deposit coloration ([1]; Table 3, 100 mg/l, stool A, Salmonella Typhi) | Deposit coloration ([1]; Table 3, 100 mg/l, stool A, no strain) | Colonies coloration (Candida albicans; Table 4, 75 mg/l) | Colonies coloration (Candida krusei; Table 4, 75 mg/l, stool A) | Colonies coloration (Candida krusei; Table 4, 75 mg/l, stool B)

CCOP(=O)(OCC)Oc1ccc([N+](=O)[O-])cc1 [O,O-diethyl p-nitrophenyl phosphate]
0.5: Deposit coloration ([1]; Table 1, 1 mg/l, stool A, Salmonella Enteritidis) | Deposit coloration ([1]; Table 1, 1 mg/l, stool A, Salmonella Paratyphi A) | Deposit coloration ([1]; Table 1, 1 mg/l, stool A, Salmonella Typhi) | Deposit coloration ([1]; Table 1, 1 mg/l, stool A, no strain) | Colonies coloration (Candida albicans; Table 4, 5 mg/l) | Colonies coloration (Candida krusei; Table 4, 5 mg/l, stool A) | Colonies coloration (Candida krusei; Table 4, 5 mg/l, stool B)
greatly inhibited: Aspecific enzymatic reactions due to the presence of free enzymes [1]
1: Colonies coloration (Salmonella Typhi; Table 1, 1 mg/l, stool A) | Colonies coloration (Salmonella Typhi; Table 1, 1 mg/l, stool B) | Colonies coloration (Salmonella Typhi; Table 1, 5 mg/l, stool A) | Colonies coloration (Salmonella Typhi; Table 1, 5 mg/l, stool B) | Colonies coloration (Salmonella Typhi; Table 1, 10 mg/l, stool A) | Colonies coloration (Salmonella Typhi; Table 1, 10 mg/l, stool B)
0: Deposit coloration ([1]; Table 1, 1 mg/l, stool B, Salmonella Enteritidis) | Deposit coloration ([1]; Table 1, 1 mg/l, stool B, Salmonella Paratyphi A) | Deposit coloration ([1]; Table 1, 1 mg/l, stool B, Salmonella Typhi) | Deposit coloration ([1]; Table 1, 1 mg/l, stool B, no strain) | Deposit coloration ([1]; Table 1, 5 mg/l, stool A, Salmonella Enteritidis) | Deposit coloration ([1]; Table 1, 5 mg/l, stool A, Salmonella Paratyphi A) | Deposit coloration ([1]; Table 1, 5 mg/l, stool A, Salmonella Typhi) | Deposit coloration ([1]; Table 1, 5 mg/l, stool A, no strain) | Deposit coloration ([1]; Table 1, 5 mg/l, stool B, Salmonella Enteritidis) | Deposit coloration ([1]; Table 1, 5 mg/l, stool B, Salmonella Paratyphi A) | Deposit coloration ([1]; Table 1, 5 mg/l, stool B, Salmonella Typhi) | Deposit coloration ([1]; Table 1, 5 mg/l, stool B, no strain) | Deposit coloration ([1]; Table 1, 10 mg/l, stool A, Salmonella Enteritidis) | Deposit coloration ([1]; Table 1, 10 mg/l, stool A, Salmonella Paratyphi A) | Deposit coloration ([1]; Table 1, 10 mg/l, stool A, Salmonella Typhi) | Deposit coloration ([1]; Table 1, 10 mg/l, stool A, no strain) | Deposit coloration ([1]; Table 1, 10 mg/l, stool B, Salmonella Enteritidis) | Deposit coloration ([1]; Table 1, 10 mg/l, stool B, Salmonella Paratyphi A) | Deposit coloration ([1]; Table 1, 10 mg/l, stool B, Salmonella Typhi) | Deposit coloration ([1]; Table 1, 10 mg/l, stool B, no strain) | Colonies coloration ([2]; Table 1, 1 mg/l, stool A) | Colonies coloration ([2]; Table 1, 1 mg/l, stool B) | Colonies coloration ([2]; Table 1, 5 mg/l, stool A) | Colonies coloration ([2]; Table 1, 5 mg/l, stool B) | Colonies coloration ([2]; Table 1, 10 mg/l, stool A) | Colonies coloration ([2]; Table 1, 10 mg/l, stool B) | Colonies coloration ([3]; 5 mg/l, stool A) | Colonies coloration ([3]; 5 mg/l, stool B)
2: Colonies coloration (Salmonella Enteritidis; Table 1, 1 mg/l, stool A) | Colonies coloration (Salmonella Enteritidis; Table 1, 1 mg/l, stool B) | Colonies coloration (Salmonella Enteritidis; Table 1, 5 mg/l, stool A) | Colonies coloration (Salmonella Enteritidis; Table 1, 5 mg/l, stool B) | Colonies coloration (Salmonella Enteritidis; Table 1, 10 mg/l, stool A) | Colonies coloration (Salmonella Enteritidis; Table 1, 10 mg/l, stool B)

From US7691601B2, “Medium for detecting and/or identifying of microorganisms” (priority 2003, dated 2010)
